The values that follow come from article PMC2680961, “Homologous desensitization of signalling by the alpha (α) isoform of the human thromboxane A2 receptor: A specific role for nitric oxide signalling” (Biochimica et Biophysica Acta, 2007).

Substitutions are numbered along the chain they refer to.

One experiment concerns the target T1, TPα (Homo sapiens, UniProt P21731).
T1 construct: expressed in transfected cells
T1 sequence (P21731 1-343): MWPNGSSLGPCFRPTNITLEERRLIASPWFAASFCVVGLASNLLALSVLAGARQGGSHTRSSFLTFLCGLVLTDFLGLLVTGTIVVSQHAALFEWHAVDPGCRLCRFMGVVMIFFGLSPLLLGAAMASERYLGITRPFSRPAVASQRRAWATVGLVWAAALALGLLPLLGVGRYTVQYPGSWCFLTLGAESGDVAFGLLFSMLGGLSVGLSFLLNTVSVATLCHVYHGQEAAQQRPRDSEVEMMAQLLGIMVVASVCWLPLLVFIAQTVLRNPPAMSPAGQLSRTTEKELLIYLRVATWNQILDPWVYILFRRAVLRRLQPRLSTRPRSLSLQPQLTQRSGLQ
The experiment is described as follows: Intracellular calcium mobilization, HEK.TPα cells. The class given is cell-based. The following applies: HEK.TPα. As for the experimental part:
(§1) Measurement of intracellular calcium mobilization ([Ca^2+]i) in FURA2/AM preloaded HEK 293 cell lines (2 × 10^6 cells/dish), each transiently co-transfected with pADVA (10 μg), and pCMV:Gαq (25 μg), was carried out as previously described. To investigate the effect of GRK2/βARK1 on TP-mediated [Ca^2+]i mobilization, HEK.TPα or HEK.TPβ cells (2 × 10^6 cells/dish) were co-transfected with pADVA (10 μg), pCMV:Gαq (25 μg) along with pRK5:βARK1^495–689 (25 μg), encoding a dominant negative form of GRK2/βARK1[39]. Approximately 48 h post-transfection, cells were harvested by scraping, washed twice in ice-cold PBS and resuspended in HBSSHB (modified Ca^2+/Mg^2+-free Hank's buffered salt solution, containing […], pH 7.67, 0.1% bovine serum albumin (BSA)) buffer at 10^7 cells/ml and incubated in the dark with 5 μM FURA2/AM for 45 min at 37 °C. Cells were collected by centrifugation (900×g, 5 min), washed once in an equal volume of HBSSHB, and were finally resuspended in HBSSHB buffer at 10^7 cells/ml and kept at room temperature in the dark for 40 min. For each measurement of [Ca^2+]i mobilization, aliquots of cells were diluted to 0.825 × 10^6 cells/ml in HBSSHB, 1 mM CaCl2 and FURA2 fluorescence was recorded (2 ml aliquots of cells) at 37^ °C with gentle stirring with a Perkin Elmer-Cetus LS50-B spectrofluorometer at excitation wavelengths of 340 nm and 380 nm and emission wavelength of 510 nm, respectively.
[…] To assess agonist-mediated homologous desensitization, cells (0.825 × 10^6 cells/ml; 2 ml per assay) were stimulated with 1 μM U46619 (Primary stimulation) or, as a control, with the vehicle for 4 min; thereafter, cells were collected by centrifugation (900×g, 5 min); were washed twice in 2 ml HBSSHB, 1 mM CaCl2; and finally resuspended in 2 ml HBSSHB,1 mM CaCl2 and were left to recover over various time intervals (ranging from 0 to 60 min); thereafter, cells re-stimulated with 1 μM U46619 (Secondary stimulation) and changes in [Ca^2+]i mobilization were monitored as a function of time. To assess the role of protein kinase (PK) A, PKC or PKG on U46619-mediated desensitization of TPα signalling, cells were pre-incubated with the PKA inhibitor H-89 (10 μM), the PKC inhibitor GF 109203X (50 nM) or the PKG inhibitor KT 5823 (50 nM), for 15 min and respective kinase inhibitors were maintained throughout the primary/secondary U46619-stimulations and during the washes.
The vehicle had no effect on U46619-mediated [Ca^2+]i mobilization. Calibration of the signal was performed in each sample by adding 0.2% Triton X-100 to obtain the maximal fluorescence ratio (Rmax) and then 1 mM EGTA to obtain the minimal fluorescence ratio (Rmin). The ratio of the fluorescence at 340 nm to that at 380 nm is a measure of [Ca^2+]i, which assumes a Kd of 225 nM Ca^2+ for FURA2/AM. The results presented in the figures are representative data from at least three or four independent experiments and are plotted as changes in Ca^2+i mobilized (Δ[Ca^2+]i (nM)) as a function of time (s) upon ligand stimulation. Changes in [Ca^2+]i mobilization were determined by measuring peak rises in [Ca^2+]i mobilized (Δ[Ca^2+]i) and were calculated as mean changes in Δ[Ca^2+]i ± S.E.M. (nM).
A general note: Calcium assays in cells follow changes in intracellular calcium, usually with a dye or a luminescent sensor.

The next experiment has as its target T2, TPα^T337A (Homo sapiens, UniProt P21731, T337A).
T2 construct: expressed in transfected cells
T2 sequence (P21731 1-343 T337A): T1 sequence (P21731 1-343) with T337A
Briefly: Intracellular calcium mobilization, HEK.TPα^T337A cells. The experiment is classed as cell-based. Particulars: for Δ[Ca2+]i, U46619-induced: HEK.TPα^T337A. On the procedure: as §1, with “Cells were collected by centrifugation (900×g, 5 min), washed once in an equal volume of HBSSHB, and were finally resuspended in HBSSHB buffer at 10^7 cells/ml and kept at room temperature in the dark for 40 min.” left out
Cells were stimulated with the TP agonist U46619 (1 μM) and changes in [Ca^2+]i mobilization were monitored as a function of time. To assess agonist-mediated homologous desensitization, cells (0.825 × 10^6 cells/ml; 2 ml per assay) were stimulated with 1 μM U46619 (Primary stimulation) or, as a control, with the vehicle for 4 min; thereafter, cells were collected by centrifugation (900×g, 5 min); were washed twice in 2 ml HBSSHB, 1 mM CaCl2; and finally resuspended in 2 ml HBSSHB,1 mM CaCl2 and were left to recover over various time intervals (ranging from 0 to 60 min); thereafter, cells re-stimulated with 1 μM U46619 (Secondary stimulation) and changes in [Ca^2+]i mobilization were monitored as a function of time. […]

Turning to `CCCCC[C@H](O)/C=C/[C@@H]1[C@@H](C/C=C\CCCC(=O)O)[C@H]2CO[C@@H]1C2` [U46619], the “Δ[Ca2+]i, U46619-induced” value is on record as 150 ± 7.5 nM on TPα (+ GRK^DN (βARK1^495–689), primary 1 μM U46619); 0 nM at TPα (+ GRK^DN, secondary 1 μM U46619 at 15 min); 174 ± 8.8 nM on TPα (primary stimulation, 1 μM U46619 4 min); 0 nM on TPα (secondary stimulation 1 μM U46619 at 15 min after primary, after washout); 0 nM on TPα (secondary stimulation 1 μM U46619 at 60 min after primary, after washout); 191.5 ± 25.5 nM at TPα (vehicle as primary stimulation, washout, 1 μM U46619 at 60 min). Moreover, the “Δ[Ca2+]i, U46619-induced” value at TPα (− GRK^DN (pRK5 control), primary 1 μM U46619) is listed as 165 ± 9 nM; on TPα (− GRK^DN, secondary 1 μM U46619 at 15 min) it was 0 nM; on TPα^T337A (primary 1 μM U46619 4 min), 200 ± 9.2 nM; at TPα^T337A (secondary 1 μM U46619 at 15 min), 49 ± 5 nM. On TPα^T337A (TPα^T337A), the “secondary U46619 [Ca2+]i response relative to primary response” value came out at 25%.
